{"source": "paper PMC3711248", "about": "(Journal of medicinal chemistry, 2013)", "key": {"JTAg cells [1]": {"tested_on": "JTAg cells", "assay": "Phospho-flow cytometry of ZAP-70", "conditions": "[…] µM, 30 min pre-incubation, C305 stimulation 2 min, vs DMSO"}, "[2]": {"tested_on": "double-positive (DP) thymocytes", "assay": "CD69 surface expression on mouse thymocytes", "conditions": "[…] µM, […] at 37°C, thymocytes from Nur77GFP mice; DMSO MFI=381"}, "mice": {"tested_on": "mice", "assay": "Passive systemic anaphylaxis", "assay_type": "in vivo, mouse", "conditions": "PEP+/+ mice, 8b (20 µM) IP 1 h before DNP-HSA i.v., vs untreated groups"}, "BMMC [3]": {"tested_on": "BMMC", "assay": "Mast cell degranulation"}, "BMMC [4]": {"tested_on": "BMMC", "assay": "NF-AT luciferase reporter gene analysis in BMMC", "assay_type": "cell-based, mouse"}, "JTAg cells [5]": {"tested_on": "JTAg cells", "assay": "CD69 surface expression on JTAg cells", "conditions": "[…] µM, 4.5 hours at 37°C, resting JTAg cells; DMSO MFI=451"}, "[6]": {"tested_on": "double-positive (DP) thymocytes", "assay": "Nur77 expression", "conditions": "[…] µM, […] at 37°C, thymocytes from Nur77GFP mice; DMSO MFI=604"}, "LYP": {"molecular_target": "T1, LYP (Homo sapiens, UniProt Q9Y2R2)", "T1 sequence (Q9Y2R2 1-303)": "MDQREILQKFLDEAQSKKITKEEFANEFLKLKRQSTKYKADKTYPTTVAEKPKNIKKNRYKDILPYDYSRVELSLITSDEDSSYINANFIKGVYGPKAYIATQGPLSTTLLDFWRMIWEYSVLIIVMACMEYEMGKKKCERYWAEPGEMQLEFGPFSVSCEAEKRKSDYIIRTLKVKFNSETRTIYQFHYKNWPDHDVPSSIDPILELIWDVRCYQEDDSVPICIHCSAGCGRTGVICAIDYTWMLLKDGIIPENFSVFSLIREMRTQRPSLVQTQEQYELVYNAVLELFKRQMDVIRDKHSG", "assay_type": "biochemical"}}}
{"smiles": "O=C(COc1ccc(-c2oc3cc(O)c(C(=O)O)cc3c2C#Cc2cccc(Cl)c2)cc1)NC1CC1", "note": "[Compound 8b, 3-((3-Chlorophenyl)ethynyl)-2-(4-(2-(cyclopropylamino)-2-oxoethoxy)phenyl)-6-hydroxybenzofuran-5-carboxylic Acid]", "values": [{"measurement": "basal and TCR-stimulated phosphorylation of ZAP-70 on Tyr319", "setting": "JTAg cells [1]", "value": "increased"}, {"measurement": "CD69 expression, MFI", "setting": "[2]", "value": 758}, {"measurement": "susceptibility to passive systemic anaphylaxis (change in body temperature)", "setting": "mice", "value": "less susceptible to PSA"}, {"measurement": "antigen-stimulated degranulation (release of β-hexosaminidase)", "setting": "BMMC [3]; PEP+/+ BMMC, C28 5 µM, 8b 5 and 20 µM for 1 h, DNP-HSA 200 ng/ml", "value": "down-regulated"}, {"measurement": "residual degranulation", "setting": "BMMC [3]; PEP−/− BMMC", "value": "Neither compunds affected residual degranulation"}, {"measurement": "basal and antigen-mediated NF-AT luciferase activity", "setting": "BMMC [4]; PEP+/+ BMMC, C28 5 µM, 8b 5 and 20 µM for 1 h, DNP-HSA 8 h", "value": "dose dependent down-regulation"}, {"measurement": "residual NF-AT activity", "setting": "BMMC [4]; PEP−/− BMMC", "value": "No significant effect"}, {"measurement": "CD69 expression, median fluorescence intensity (MFI)", "setting": "JTAg cells [5]", "value": 616}, {"measurement": "Nur77 expression by GFP cell fluorescence, MFI", "setting": "[6]", "value": 1120}]}
{"smiles": "O=C(O)c1cc2c(C#Cc3cccc(Cl)c3)c(-c3ccccc3)oc2cc1O", "note": "[Compound 4c]", "values": [{"measurement": "improvement of LYP inhibitory potency compared to Core 1", "setting": "LYP", "value": 50, "unit": "fold"}]}
{"smiles": "O=C(O)c1cc2c(C#Cc3ccc(Oc4ccccc4)cc3)c(-c3ccccc3)oc2cc1O", "note": "[Compound 4i]", "values": [{"measurement": "improvement of LYP inhibitory potency compared to Core 1", "setting": "LYP", "value": 50, "unit": "fold"}]}
